In ChEMBL document CHEMBL1129440, “The use of topographical constraints in receptor mapping: investigation of the topographical requirements of the tryptophan 30 residue for receptor binding of Asp-Tyr-D-Phe-Gly-Trp-(N-Me)Nle-Asp-Phe-NH2 (SNF 9007), a cholecystokinin (26-33) analogue that binds to both CCK-B and delta-opioid …” (J Med Chem, 1996) one finds IC50 data, which are given here for six compounds.

Structures are written as SMILES. Some results are limits rather than exact numbers.

Test [1] addresses T1, Cholecystokinin receptor type A (Cavia porcellus, UniProt Q63931).
T1 sequence (Q63931 whole entry): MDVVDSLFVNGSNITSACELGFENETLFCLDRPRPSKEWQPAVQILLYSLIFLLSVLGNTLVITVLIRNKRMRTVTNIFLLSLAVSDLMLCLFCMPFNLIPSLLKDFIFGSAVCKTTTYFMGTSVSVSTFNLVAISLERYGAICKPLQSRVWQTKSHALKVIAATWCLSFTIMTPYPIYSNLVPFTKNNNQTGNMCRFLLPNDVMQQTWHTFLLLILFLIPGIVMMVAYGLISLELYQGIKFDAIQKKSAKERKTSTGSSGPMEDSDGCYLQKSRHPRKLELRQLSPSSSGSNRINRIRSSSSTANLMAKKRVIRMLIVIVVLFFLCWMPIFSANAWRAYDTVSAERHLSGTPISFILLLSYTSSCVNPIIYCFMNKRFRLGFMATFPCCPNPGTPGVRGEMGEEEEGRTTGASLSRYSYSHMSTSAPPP
Briefly: Binding affinity towards Cholecystokinin type A receptor was determined in guinea pig pancreatic membranes using [125I]-BH-CCK-8 as radioligand. In kind it is cell membranes.

For the next test, the target named is Mu-type opioid receptor (Cavia porcellus, UniProt P97266). Briefly: Binding affinity towards Opioid receptor mu 1 was determined in guinea pig whole brain using [3H]CTOP radioligand.
Sequence of Mu-type opioid receptor (P97266 whole entry): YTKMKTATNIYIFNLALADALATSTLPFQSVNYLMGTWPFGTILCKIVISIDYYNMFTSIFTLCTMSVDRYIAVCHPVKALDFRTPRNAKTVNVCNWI

Regarding `CC1(C)SSC(C)(C)[C@H](C(=O)O)NC(=O)C(Cc2ccccc2)NC(=O)CNC(=O)C1NC(=O)[C@@H](N)Cc1ccc(O)cc1` (single isomer, unassigned), the half-inhibitory concentration (IC50) entry in test [1] is “Not Active”.

As to `CCCC[C@@H](C(=O)N[C@@H](CC(=O)O)C(=O)N[C@@H](Cc1ccccc1)C(N)=O)N(C)C(=O)[C@@H](NC(=O)CNC(=O)[C@@H](Cc1ccccc1)NC(=O)[C@H](Cc1ccc(O)cc1)NC(=O)[C@@H](N)CC(=O)O)[C@H](C)c1c[nH]c2ccccc12`, the half-inhibitory concentration (IC50) in test [1] (read-out: IC50) is 1 µM; on Mu-type opioid receptor, 3.05 µM.

Consider `CCCC[C@@H](C(=O)N[C@@H](CC(=O)O)C(=O)N[C@@H](Cc1ccccc1)C(N)=O)N(C)C(=O)[C@H](NC(=O)CNC(=O)[C@@H](Cc1ccccc1)NC(=O)[C@H](Cc1ccc(O)cc1)NC(=O)[C@@H](N)CC(=O)O)[C@H](C)c1c[nH]c2ccccc12`, for which the IC50 is 8.6 µM in test [1] (read-out: IC50) and above 30 µM at Mu-type opioid receptor.

For the compound `CCCC[C@@H](C(=O)N[C@@H](CC(=O)O)C(=O)N[C@@H](Cc1ccccc1)C(N)=O)N(C)C(=O)[C@@H](NC(=O)CNC(=O)[C@@H](Cc1ccccc1)NC(=O)[C@H](Cc1ccc(O)cc1)NC(=O)[C@@H](N)CC(=O)O)[C@@H](C)c1c[nH]c2ccccc12`, the IC50 is above 1.2 µM in test [1] (read-out: IC50) and 6.8 µM at Mu-type opioid receptor.

Regarding `CCCC[C@@H](C(=O)N[C@@H](CC(=O)O)C(=O)N[C@@H](Cc1ccccc1)C(N)=O)N(C)C(=O)[C@H](NC(=O)CNC(=O)[C@@H](Cc1ccccc1)NC(=O)[C@H](Cc1ccc(O)cc1)NC(=O)[C@@H](N)CC(=O)O)[C@@H](C)c1c[nH]c2ccccc12`, the results for the IC50 (in test [1] (read-out: IC50); on Mu-type opioid receptor) were 8.6 µM and above 30 µM, respectively.

Consider `CCCC[C@@H](C(=O)N[C@@H](CC(=O)O)C(=O)N[C@@H](Cc1ccccc1)C(N)=O)N(C)C(=O)[C@H](Cc1c[nH]c2ccccc12)NC(=O)CNC(=O)[C@@H](Cc1ccccc1)NC(=O)[C@H](Cc1ccc(O)cc1)NC(=O)[C@@H](N)CC(=O)O`, for which the values for the IC50 (in test [1] (read-out: IC50); at Mu-type opioid receptor) were above 12 µM and 0.7 µM, respectively.
